This note sets out measurements from patent publication US7655225B2, “Methods of expanding stem and progenitor cells and expanded cell populations obtained thereby” (Gamida Cell, Ltd., priority 2002, dated 2010).

The subject of the assay is CD34+ cells. In words: Ex vivo expansion of purified CD34+ cells in liquid culture: cell enumeration and FACS of subsets. The class given is cell-based, human. As to conditions: for density of CD34+CD38− cells, fold higher than untreated control / density of CD34+ Lin− progenitor cells, fold higher than untreated control: with IL-3; for density of CD34+CD38− cells, fold higher than untreated control: FIG. 6b; for density of CD34+ Lin− progenitor cells, fold higher than untreated control: FIG. 6c. On the procedure: Sample collection and processing: Samples were obtained from umbilical human cord blood and processed within 12 hours. The blood cells were mixed with 3% Gelatin (Gigma, St. Louis, Mo.) and allowed to sediment for 30 minutes to remove most red blood cells. The leukocyte-rich fraction was harvested, layered on Ficoll-Hypaque (density 1.077 gram/ml; Sigma) and centrifuged at 400 g for 30 minutes at room temperature. The mononuclear cells in the interface layer were then collected, washed three times in phosphate-buffered saline (PBS; Biological Industries), and re-suspended in PBS solution which contains 1% bovine serum albumin (BSA; Sigma). The cells were then incubated at 4° C. for 30 minutes with murine monoclonal anti CD34^+ antibody (0.5 μg/10^6 mononuclear cells) and were thereafter isolated using two cycles of immuno-magnetic separation using the miniMACS CD34^+ Progenitor Cell Isolation Kit (Miltenyi-Biotec, Auburn, Calif.) according to the manufacturer's recommendations. The purity of the CD34^+ cells obtained ranged between 95% and 98%, based on Flow Cytometry evaluation (see below). Ex vivo expansion of progenitor cells: Enriched CD34^+ cell fractions were cultures in 24-well Costar Cell Culture Clusters (Corning Inc., Corning, N.Y.) or in Culture Bags (American Fluoroseal Corp.) with alpha minimal essential medium supplemented with 10% fetal bovine serum (FBS, Biological Industries), at about 1-3×10^4 cells/ml medium. The media were further supplemented with the following human recombinant cytokines (all obtained from Perpo Tech, Inc., Rocky Hill, N.J.): Thrombopoietin (TPO), 50 ng/ml; interleukin 6 (IL-6), 50 ng/ml; FLT-3 ligand, 50 ng/ml; and IL-3, 20 ng/ml. The cultures were incubated at 37° C. in an atmosphere of 5% CO2 in air with extra humidity. At weekly intervals cell cultures were semi-depopulated and supplemented with fresh medium containing the cytokines. Following different incubation periods, the cells were harvested, stained with trypan blue and enumerated. The total cell counts, numbers of CD34^+ cells and subsets thereof, and the number of colony-forming cells (CFU) are presented herein as cumulative numbers, with the assumption that the cultures had not been passaged, namely, the numbers of cells per ml were multiplied by the number of passages performed. Surface antigen analysis: At different time intervals, the cultured cells were harvested, washed with a PBS solution containing 1% BSA and 0.1% sodium azide (Sigma), and stained, at 4° C. for 60 minutes, with FITC-labeled anti CD45 monoclonal antibody and either PE-labeled anti CD34 (HPCA-2) monoclonal or PE-labeled control mouse Ig (all from Immunoquality Products, the Netherlands). The cells were then washed with the same PBS solution and were analyzed by a flow cytometer, as described hereinafter. Flow cytometry analysis: Cells were analyzed and sorted using FACS caliber flow cytometer (Becton-Dickinson, Immunofluorometry systems, Mountain View, Calif.). Cells were passed at a rate of 1,000 cells/second through a 70 μm nozzle, using a saline sheath fluid. A 488 nm argon laser beam at 250 mW served as the light source for excitation. Fluorescence emission of ten thousand cells was measured using a logarithmic amplification and analyzed using CellQuest software. Determination of the density of stem and progenitor subset populations following expansion: Following an incubation period, the CD34^+ cells were re-selected using miniMACS Miltenyi kit. The purity of the positive fraction of selected CD34^+ cells was confirmed by FACS analysis as well as by cell morphology analysis. The density of CD34^+ cells, in proportion (percentage) to total cells, was determined directly via FACS analysis. The densities of CD34^+ subset populations were determined from the purified CD34^+ fraction. Re-selected CD34^+ cells were stained with lineage specific antigens followed by FACS analysis to determine the percentage of the subset populations within the total number of CD34^+ cells. […]

Consider `NCCNCCNCCNCCN` [TEPA chelator, tetraethylenepentamine], for which the “density of CD34+ CD38− subset cells vs untreated or TEPA-Cu treatment” value (three weeks, 5 μM, FIG. 12b) is “substantially increased”. In addition, the “density of CD34+ Lin− subset cells vs untreated or TEPA-Cu treatment” value (three weeks, 5 μM, FIG. 12c) was “substantially increased”. Also, where the note is “two and three weeks, 5 μM, FIG. 13b”, the “density of CD34+CD38− cells vs untreated or TEPA-Cu treatment” value was “substantially higher”. In addition, where the note is “two and three weeks, 5 μM, FIG. 13c”, the “density of CD34+ Lin− cells vs untreated or TEPA-Cu treatment” value is on record as “substantially higher”. The “density of CD34+ cells vs untreated control” value (two weeks culture, 5 μM, FIGS. 11a-b) is given as “slightly decreased”.
With `NCCNCCNCCNCCN.[Cl-].[Cl-].[Cu+2]` [TEPA-Cu chelate, tetraethylenepentamine-copper chelate], the “density of CD34+CD38− cells, fold higher than untreated control” value came out at 5 fold (20 μM, two weeks); 15 fold (40 μM, two weeks); 15 fold (50 μM, two weeks). Moreover, the “density of CD34+ Lin− progenitor cells, fold higher than untreated control” value is, setting by setting: (20 μM, two weeks) 3 fold; (40 μM, two weeks) 5 fold; (50 μM, two weeks) 4 fold. The “number of CD34+ cells vs untreated (cytokines only) culture” value (2 and 3 weeks, 30 μM or 40 μM, FIG. 5a) was “remained almost unchanged”. Further, the “number of CD34+CD38− cells, fold higher than untreated control” value (3 weeks, 30 μM or 40 μM, FIG. 5b) is 6-7 fold. Also, the “number of CD34+ Lin− cells, fold higher than untreated control” value (3 weeks, 30 μM or 40 μM, FIG. 5c) was 4-6.5 fold. Also, the “density of CD34+ stem cells, expansion” value (three weeks, 40 μM, TPO, FLT-3, IL-6, SCF, untreated 40 fold, FIG. 4a) stood at 50 fold. In addition, the “density of CD34+CD38− progenitor cells, expansion” value (three weeks, 40 μM, untreated 5 fold, FIG. 4b) is recorded as 250 fold. For the same compound, the “density of CD34+ Lin− progenitor cells, expansion” value (three weeks, 40 μM, untreated 10 fold, FIG. 4c) turned out to be 110 fold. For the setting “three weeks, 50 μM, FIG. 8a”, the “more total cells as compared with the untreated control” value is “ca. 25%”. For the same compound, the “density of CD34+ CD38− subset cells vs untreated control” value (three weeks, 50 μM, FIG. 8c) is reported as “substantially higher”. Further, the “density of CD34+ Lin− subset cells vs untreated control” value (three weeks, 50 μM, FIG. 8d) was “substantially higher”. The “CD34+ cell expansion vs untreated control” value (two weeks culture, 40 μM, FIGS. 11a-b) is “did not significantly affect”. For the same compound, the “density of CD34+CD61+ progenitor cells, fold vs untreated control” value (two weeks, 40 μM, FIG. 7a) was “ca. 2 fold”. In addition, the “density of CD34+CD41+ progenitor cells, fold vs untreated control” value (two weeks, 40 μM, FIG. 7b) is reported as roughly 3 fold. Further, the “density of CD34+ stem cells, fold higher than untreated control” value (two weeks, 20, 40 and 50 μM, TPO, FLT-3, IL-6, IL-3, FIG. 6a) is recorded as “ca. 1.5 fold”.
